{"source": "patent US5994336A", "about": "“Method of inhibiting proliferation of cells by administering an aminosterol compound” (priority 1995, dated 1999)", "key": {"[1]": {"system": "human microvascular cells", "experiment": "Inhibition of endothelial cell cord formation in vitro", "format": "cell-based", "settings": "words", "excerpt": "Endothelial cells have the capacity in vitro to form tubular aggregates resembling capillaries in various early stages of formation. This conversion occurs under relatively specific conditions, in which essential growth factors along with an effective substratum are provided. It has been shown that both the interaction of growth factors with the endothelial cell and its attachment to a substratum activate the NHE. The activation of this exchanger is believed to be required for subsequent morphologic transformation of the endothelial cell into a multicellular tubular structure.\nTo assess the effect of compounds on the cord-like structures formed by human microvascular cells when plated in the presence of VEGF (Vascular Endothelial Growth Factor) and basic fibroblast growth factor on a collagen matrix, a standard cord formation assay was used."}, "[2]": {"system": "B16", "experiment": "Cytostatic activity against B16 in culture", "format": "cell-based, murine", "settings": "except at very high concentrations"}, "[3]": {"molecular_target": "T1, rabbit NHE3 (Oryctolagus cuniculus, UniProt P26432)", "T1 construct": "BCECF internal pH recovery", "T1 sequence (P26432 30-832)": "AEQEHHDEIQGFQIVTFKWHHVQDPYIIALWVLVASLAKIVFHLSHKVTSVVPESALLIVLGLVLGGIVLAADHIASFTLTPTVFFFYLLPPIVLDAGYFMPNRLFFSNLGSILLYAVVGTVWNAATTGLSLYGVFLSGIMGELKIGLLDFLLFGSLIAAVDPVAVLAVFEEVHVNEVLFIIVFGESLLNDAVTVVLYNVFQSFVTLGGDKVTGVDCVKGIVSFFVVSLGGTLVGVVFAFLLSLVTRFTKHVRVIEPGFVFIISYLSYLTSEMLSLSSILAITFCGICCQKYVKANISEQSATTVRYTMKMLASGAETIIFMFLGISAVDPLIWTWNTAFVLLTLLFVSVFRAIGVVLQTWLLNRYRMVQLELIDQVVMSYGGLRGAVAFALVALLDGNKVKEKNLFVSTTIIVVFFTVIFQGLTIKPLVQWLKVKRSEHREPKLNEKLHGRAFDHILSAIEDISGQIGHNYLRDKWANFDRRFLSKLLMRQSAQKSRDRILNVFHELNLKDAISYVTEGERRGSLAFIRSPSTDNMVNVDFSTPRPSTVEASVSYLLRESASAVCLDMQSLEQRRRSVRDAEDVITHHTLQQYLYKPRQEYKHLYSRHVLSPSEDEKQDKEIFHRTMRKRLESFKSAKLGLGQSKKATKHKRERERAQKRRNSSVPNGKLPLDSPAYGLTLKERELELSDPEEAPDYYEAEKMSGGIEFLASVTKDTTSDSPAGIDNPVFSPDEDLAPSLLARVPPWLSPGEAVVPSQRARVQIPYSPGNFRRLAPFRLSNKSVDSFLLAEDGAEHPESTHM", "format": "cell-based"}, "[4]": {"system": "vitelline capillaries", "experiment": "Chick embryo vitelline capillary regression assay", "format": "in vivo", "design": "key to vascular reactivity: +: Vascular reactivity; 0: No vascular reactivity; +/-: Equivocal reactivity", "settings": "for vascular reactivity: 60 minutes", "procedure": "Using the chick embryo vitelline capillaries assay, compounds were tested for their ability to induce capillary regression. Each compound was applied in 0.1 ml of 15% Ficol 400 and PBS onto the embryo, and vascular regression was assessed after 60 minutes.\nThe 3-day chick embryo consists of an embryonic disc from which numerous vessels emerge and return, forming a \"FIG. 8\"-shaped structure--the embryo in the center with vascular loops extending outward over both poles. […] Following a lag period of around 15 minutes, the constriction of continuity between capillary and secondary vessels, generally on the \"venous\" side, was observed. Continued pulsatile blood flow progressed, resulting in a \"swelling\" of the blind tube, followed by a pinching off of the remaining connection and formation of an enclosed vascular sac resembling a \"blood island.\" This process progressed until only the largest vessels remained intact."}, "[5]": {"system": "B16 melanoma", "experiment": "Synergistic inhibition of tumor growth, B16 melanoma model", "format": "in vivo, mouse", "settings": "squalamine alone", "procedure": "Based on the idea that tumor growth involves both the clonal expansion of a malignant cell along with the development of a supporting vascular supply, a combination of compound 1436 with squalamine was tested to determine whether it would achieve a synergistic effect on solid tumor growth. This concept was evaluated in the B16 melanoma model.\nAnimals were implanted with B16 melanoma followed by treatment with compound 1436 or 1256 administered in a combined schedule or separately. […] Thus, a combination of these two compounds achieves a therapeutic benefit in tumors dependent on neovascularization that may prevent metastatic spread."}, "[6]": {"system": "human epithelial cell line MCF 10A", "experiment": "Growth inhibition in vitro (absorbance at 600 nm)", "format": "cell-based", "settings": "10 μg/ml; FIG. 3B"}, "[7]": {"system": "B16 melanoma", "experiment": "Suppression of growth of B16 melanoma in C57B mice", "format": "in vivo, mouse", "procedure": "The growth of B16 melanoma in C57B mice is dependent upon neovascularization.\nUsing the growth of B16 melanoma cells in C57B mice, a recognized model for the evaluation of inhibitors of angiogenesis on the growth of cancers, the effects of subcutaneous, intraperitoneal and oral administration of squalamine were evaluated."}, "[8]": {"system": "bovine pulmonary endothelial cells", "experiment": "Growth inhibition in vitro (absorbance at 600 nm)", "format": "cell-based", "settings": "1 μg/ml; FIG. 3A"}, "[9]": {"system": "capillaries of the chorioallantoic membrane", "experiment": "Inhibition of capillary growth in chorioallantoic membrane (CAM) model", "format": "in vivo, chick", "excerpt": "The growing capillaries within the chorioallantoic membrane model (CAM model) have been used as a system in which to evaluate the effect of agents on their potential to inhibit new vessel growth. Neovascularization occurs most aggressively over the first week of embryonic development. Thereafter capillary growth is characterized by principally \"elongation\" rather than \"de novo\" formation.\nIn the standard assay, agents are applied locally to a region of the embryo over which neovascularization will occur. Agents are assessed by their ability to inhibit this process, as evaluated by visual examination about 7 days after application. […] The assay utilized is described in detail in Auerbach et al., Pharm. Ther. 51, 1991, 1-11."}, "[10]": {"system": "human coronary artery smooth muscle", "experiment": "Proliferation of human coronary artery smooth muscle in vitro", "format": "cell-based", "settings": "FIG. 15", "excerpt": "Aminosterols of the invention may also have utility in inhibiting the growth factor mediated proliferation of smooth muscle within the artery. Following coronary angioplasty, reocclusion commonly occurs, secondary to reparative proliferation of the vascular smooth muscle within the wall of the surgically manipulated blood vessel. This process generally takes place over the course of 7-10 days. To evaluate whether an agent could prevent the growth factor mediated proliferation of smooth muscle within the artery, compound 1436 was evaluated in vitro for its effect on the proliferation of human coronary artery smooth muscle. Results for compound 1436 are shown in FIG. 13, and those for squalamine are shown in FIG. 14, with FIG. 15 being a composite logarithmic plot."}, "[11]": {"system": "VX2 carcinoma-induced corneal neovascularization", "experiment": "Suppression of tumor-induced corneal neovascularization in rabbits", "format": "in vivo, rabbit", "settings": "ELVAX 40 P pellet, day 21", "excerpt": "The implantation of VX2 carcinoma into the rabbit cornea results in the induction of new blood vessels within several days (Tamargo et al., Cancer Research 51, 1991, 672-675). It is believed that this carcinoma secretes growth factors that stimulate new blood-vessel growth. Thus, this model is indicative in vivo evidence of therapeutic utility in the treatment of pathological disorders of vascularization, including the metastatic spread of tumors, diabetic retinopathy, macular degeneration, and rheumatoid arthritis.\nThis experiment followed the published protocol--tumor was implanted adjacent to a polymer containing a concentration of the agent to be evaluated. The polymer releases the agent slowly in the immediate neighborhood of the tumor, providing sustained high local concentrations of the agent. In this experiment, squalamine introduced into a pellet of ELVAX 40 P (DuPont, Wilmington, Del.) inhibited new blood vessel formation by about 60% at days 7 and 14, and by about 25% at day 21."}, "[12]": {"system": "human melanoma 1205Lu", "experiment": "Suppression of growth of human melanoma in RAG-1 mice", "format": "in vivo", "excerpt": "As apparent from FIG. 5, melanoma 1205Lu develops aggressively in RAG-1 mice after implantation."}, "[13]": {"system": "human umbilical venous endothelial cells", "experiment": "LPS-induced neutrophil adherence", "format": "cell-based", "settings": "squalamine 10 μg, 1.0 μg or 0.1 μg", "excerpt": "Methods 109, 1988, 175-184."}}, "data": [{"compound": "CC(C)[C@@H](CC[C@@H](C)[C@H]1CC[C@H]2[C@@H]3[C@H](O)C[C@H]4C[C@@H](NCCCNCCCCN)CC[C@]4(C)[C@H]3CC[C@]12C)OS(=O)(=O)O", "note": "[squalamine]", "values": [{"measurement": "effect on cell viability or proliferation at cord-inhibiting concentrations", "setting": "[1]", "result": "does not appear to profoundly affect cell viability or proliferation"}, {"measurement": "cytostatic activity against B16 in culture", "setting": "[2]", "result": "minimal cytostatic activity"}, {"measurement": "resting internal pH", "setting": "[3]; 5 μg/ml, cells not acid-preloaded, FIG. 1B", "result": "the resting pH of these cells was also inhibited"}, {"measurement": "inhibition of NHE3, effect on Km and Vmax", "setting": "[3]; squalamine 5 μg/ml, FIGS. 1A, 1B", "result": "inhibited NHE3 with respect to proton concentration at both Km and Vmax levels"}, {"measurement": "inactivation of exchanger compared with amiloride", "setting": "[3]; words", "result": "more profoundly inactivated by squalamine than by amiloride"}, {"measurement": "specificity NHE3 over NHE1", "setting": "[3]; words", "result": "specificity for NHE3 over NHE1"}, {"measurement": "activity on vitelline capillaries", "setting": "[4]", "result": "especially active"}, {"measurement": "vascular reactivity", "setting": "[4]; 0.001 μg applied", "result": 0}, {"measurement": "vascular reactivity", "setting": "[4]; 0.01 μg applied", "result": "+"}, {"measurement": "vascular reactivity", "setting": "[4]; 0.1 μg applied", "result": "+"}, {"measurement": "vascular reactivity", "setting": "[4]; 1 μg applied", "result": "+"}, {"measurement": "vascular reactivity", "setting": "[4]; 10 μg applied", "result": "+"}, {"measurement": "disruption of vitelline capillaries", "setting": "[4]; 3- to 5-day chick embryos", "result": "found to disrupt vitelline capillaries"}, {"measurement": "lag period before capillary constriction", "setting": "[4]; 3-day chick embryo", "result": "around 15 minutes"}, {"measurement": "hemolysis", "setting": "[4]; chick embryo, microscopic observation", "result": "absence of hemolysis"}, {"measurement": "impact on tumor volume", "setting": "[5]; 5 mg/kg/day, FIG. 12", "result": "no significant impact on tumor volume"}, {"measurement": "effect compared with combination", "setting": "[5]; 15 mg/kg/day", "result": "Neither administration of squalamine at 15 mg/kg/day nor compound 1436 alone in a tolerable schedule could achieve this effect"}, {"measurement": "growth of epithelial line", "setting": "[6]", "result": "no effect"}, {"measurement": "body weight and hematologic parameters", "setting": "[7]; B16-bearing mice", "result": "no significant depression"}, {"measurement": "suppression of tumor volume", "setting": "[7]; intraperitoneal, FIGS. 4B, 4B-1", "result": "dose-dependent suppression of tumor volume"}, {"measurement": "suppression of tumor volume", "setting": "[7]; oral, FIGS. 4C, 4C-1", "result": "dose-dependent suppression of tumor volume"}, {"measurement": "suppression of tumor volume", "setting": "[7]; subcutaneous, FIGS. 4A, 4A-1", "result": "dose-dependent suppression of tumor volume"}, {"measurement": "growth of bovine pulmonary endothelial cells", "setting": "[8]", "result": "inhibited the growth"}, {"measurement": "inhibition of CAM vessel neovascularization", "setting": "[9]; 3-day CAM, 0.65 μg", "result": "inhibition of CAM vessel neovascularization"}, {"measurement": "vascular irritation", "setting": "[9]; 3-day embryo, 20 and 40 μg (values marked *)", "result": "Some vascular irritation noted"}, {"measurement": "Percentage positive (positive/total)", "setting": "[9]; 13-day embryo, 5.0 μg applied", "result": "0/26"}, {"measurement": "inhibition of CAM capillary growth", "setting": "[9]; 13-day old chick, ten times 0.65 μg", "result": "no inhibitory effect"}, {"measurement": "suppression of growth in vitro", "setting": "[10]", "result": "suppress in vitro the growth of human coronary artery smooth muscle"}, {"measurement": "inhibition of new blood vessel formation", "setting": "[11]", "result": "about 25%"}, {"measurement": "suppression of tumor growth", "setting": "[12]; 10, 20, 40 mg/kg/d, FIG. 5", "result": "clear suppression of tumor growth in a dose-dependent fashion"}, {"measurement": "reversibility after cessation of treatment", "setting": "[12]; words", "result": "reversible"}, {"measurement": "inhibition of neutrophil adherence", "setting": "[13]", "result": "no inhibition"}]}]}
